We go through one substance from patent publication US7235649B2, “Isolated GRP94 ligand binding domain polypeptide and nucleic acid encoding same, and screening methods employing same” (Duke University, priority 2000, dated 2007).

One assay has as its system HSP90. As to the kind of experiment: Conformational analysis by tryptic proteolysis and SDS-PAGE. The assay is classed as biochemical. Conditions: bis-ANS treatment.
The target in assay [1] is T1, GRP94 (Sus scrofa, UniProt Q29092). As to the kind of experiment: Fluorophore binding reactions with native or heat shocked GRP94 (fluorescence emission).
In assay [2] the target is T1, GRP94. As to the kind of experiment: Conformational analysis by tryptic proteolysis and SDS-PAGE. The assay is classed as biochemical, porcine. Also noted: GRP94 was purified from porcine pancreas rough microsomes; from tissue; host or cells: porcine pancreas rough microsomes. Conditions: 5 μM GRP94, 50 μM bis-ANS one hour at 37° C., 0.1% trypsin.
Assay [3] addresses T1, GRP94. Briefly: Blue native polyacrylamide gel electrophoresis (oligomeric state). The assay is classed as biochemical, porcine. The settings on record: ten-fold molar excess of bis-ANS. Also noted: GRP94 was purified from porcine pancreas rough microsomes; from tissue; host or cells: porcine pancreas rough microsomes. The method, then: Native Blue Electrophoresis. The oligomeric state of GRP94 was assayed by blue native polyacrylamide gel electrophoresis (BN-PAGE) as described by Schagger et al. (1994) Anal Biochem 217:220–230. GRP94 was either heat shocked or exposed to a 10-fold molar excess of bis-ANS for the indicated times. Samples were then dissolved in 15% glycerol and loaded onto 5–18% gradient gels with 0.02% Coomassie Brilliant Blue in the cathode buffer. Gels were run at 4° C., stained with Coomassie Blue, de-stained and dried.
When purified from tissue, GRP94 exists as a homodimer, as described by Wearsch & Nicchitta (1996a) Prot Express Purif 7(1):114–21; Nemoto et al. (1996) J Biochem 120:249–256. Following heat shock however, GRP94 forms higher molecular weight complexes, as described by Wearsch et al. (1998) Biochemistry 37:5709–5719. To further characterize the effects of bis-ANS on GRP94 structure, the oligomerization states of native, heat shocked and bis-ANS treated GRP94 were assayed by the blue native polyacrylamide gel electrophoresis (BN-PAGE) technique described by Schagger et al. (1994). In these experiments, GRP94 was incubated with bis-ANS or briefly heat shocked and subsequently incubated at 37° C. The samples were then analyzed by BN-PAGE. […] However, exposure to heat shock causes a relatively rapid formation of tetramers, hexamers, and octamers (FIG. 4, lanes 2–4).

The target in assay [4] is T1, GRP94. Briefly: Far-UV circular dichroism. Conditions: 1 μM GRP94, 10 μM bis-ANS 2 hours. Also noted: GRP94 was purified from porcine pancreas rough microsomes; from tissue; host or cells: porcine pancreas rough microsomes. The assay is classed as biochemical, porcine. The method, then:
Circular Dichroism Measurements. Far-UV CD spectrometry was performed on an AVIV Associates 62DS™ circular dichroism spectrometer (AVIV Associates of Lakewood, N.J.). Samples were analyzed in a 1 mm path length quartz cuvette at 37° C. GRP94 samples (1 μM) were prepared in standard phosphate buffered saline solution as buffer A produced unacceptable dynode voltages in the relevant region of the spectrum. GRP94 was incubated with 10 μM bis-ANS for 2 hours at 37° C. prior to obtaining spectra. Spectra were recorded from 300 to 195 nm. The α-helical content of GRP94 was calculated from the molar ellipticity at 222 nm. See Myers & Jakoby (1975) J Biol Chem 250:3785–3789.
To gain further insight into the nature of the bis-ANS dependent conformational change, GRP94 was subjected to heat shocked or treated with bis-ANS and far-UV CD spectra obtained (FIG. 5).
(Circular dichroism is widely used to follow secondary structure.)

Assay [5] addresses T1, GRP94. As to the kind of experiment: Identification of the bis-ANS binding site by photo-crosslinking, trypsin digestion and Edman sequencing. Also noted: GRP94 was purified from porcine pancreas rough microsomes; from tissue; host or cells: porcine pancreas rough microsomes; species or system porcine. The settings on record: 50 μM bis-ANS photo-crosslinked 15 minutes on ice.

Assay [6] addresses T1, GRP94. Briefly: Citrate synthase thermal aggregation assay (GRP94 chaperone activity). The assay is classed as biochemical, porcine. The settings on record: 1 μM GRP94 preincubated two hours with 10 μM bis-ANS, 0.15 μM citrate synthase, 43° C. Also noted: GRP94 was purified from porcine pancreas rough microsomes; from tissue; host or cells: porcine pancreas rough microsomes. The method, then:
Citrate Synthase Aggregation Assays. The effects of GRP94 on the thermal aggregation of citrate synthase were assayed by the methods described by Buchner et al. (1998) Methods Enzymol 290:323–338. Samples containing no protein, or GRP94 (1 μM), were incubated in 40 mM HEPES pH 7.5 for two hours at 37° C. with either 0.2% DMF or 10 μM bis-ANS. The samples were then warmed to 43° C. for five minutes and placed in a spectrofluorometer thermostatted at 43° C. Citrate synthase was then added to 0.15 μM final concentration and the thermal aggregation of the enzyme followed by light scattering. Excitation and emission wavelengths were both 500 nm with 2 nm slit width. The time course of citrate synthase aggregation was followed for 1000 seconds.
To determine if the bis-ANS-dependent conformational changes in GRP94 were of functional significance, the molecular chaperone activities of native, heat shocked and bis-ANS treated GRP94 were evaluated in a thermal aggregation assay, as described by Jakob et al. (1995) J Biol Chem 270:7288–7294 and Buchner et al. (1998) Methods Enzymol 290:323–338. […] Following experimental treatment of the GRP94, reactions were equilibrated at 43° C., citrate synthase then added and aggregation, as represented by light scattering, was measured.

The target in assay [7] is T1, GRP94. The assay is classed as biochemical, porcine. Also noted: GRP94 was purified from porcine pancreas rough microsomes; from tissue; host or cells: porcine pancreas rough microsomes. The settings on record: bis-ANS treated GRP94, ten-fold molar excess [125I]-VSV8, 30 min at 37° C.

T1 sequence (Q29092 22-804): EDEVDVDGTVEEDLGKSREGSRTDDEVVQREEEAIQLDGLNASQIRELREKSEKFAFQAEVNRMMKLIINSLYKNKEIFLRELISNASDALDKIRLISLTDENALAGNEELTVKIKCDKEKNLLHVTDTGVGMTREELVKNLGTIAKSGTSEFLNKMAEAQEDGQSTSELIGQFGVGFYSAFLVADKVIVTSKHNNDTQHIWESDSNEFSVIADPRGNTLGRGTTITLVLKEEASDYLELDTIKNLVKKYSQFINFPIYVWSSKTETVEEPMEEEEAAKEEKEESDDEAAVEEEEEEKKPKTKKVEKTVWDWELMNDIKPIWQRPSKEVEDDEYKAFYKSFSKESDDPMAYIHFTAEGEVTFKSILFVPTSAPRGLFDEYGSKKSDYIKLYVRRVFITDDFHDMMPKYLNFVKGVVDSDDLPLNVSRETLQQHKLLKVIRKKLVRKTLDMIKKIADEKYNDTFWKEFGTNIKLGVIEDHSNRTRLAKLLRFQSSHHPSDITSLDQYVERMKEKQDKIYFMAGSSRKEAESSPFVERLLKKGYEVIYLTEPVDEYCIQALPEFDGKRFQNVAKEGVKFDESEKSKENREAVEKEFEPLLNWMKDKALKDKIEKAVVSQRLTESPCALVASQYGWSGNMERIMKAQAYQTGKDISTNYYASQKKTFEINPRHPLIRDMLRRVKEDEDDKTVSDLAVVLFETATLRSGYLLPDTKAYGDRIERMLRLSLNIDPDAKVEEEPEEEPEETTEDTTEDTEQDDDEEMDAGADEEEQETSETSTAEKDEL
Description for HSP90: Conformational Analysis by Proteolysis. […] Samples were then combined with 0.1% trypsin and digested for 30 minutes at 37° C. An equal volume of SDS-PAGE sample buffer was added and the samples were snap frozen in liquid nitrogen. Immediately prior to gel analysis, samples were thawed and boiled for 5 minutes. […] Gels were fixed and stained with Coomassie Blue.

With “4,4′-dianilino-1,1-binaphthyl-5,5-disulfonic acid [bis-ANS]”, the “trypsin proteolysis pattern of HSP90 (conformation)” value in the assay on HSP90 is listed as “Essentially identical proteolysis patterns were observed following either heat shock or bis-ANS treatment of HSP90”. At GRP94 [1] (0.5 μM native GRP94, 5 μM probe, 30 min at 37° C.), the “fluorophore binding to native GRP94” value was “bi-phasic”. Also, the “saturability of bis-ANS binding” value at GRP94 [1] (heat shocked GRP94) is “binds in a saturable manner to heat shocked GRP94”. Besides, the “near maximal bis-ANS binding, molar excess of GRP94 monomer over bis-ANS” value on GRP94 [1] (heat shocked GRP94, fixed bis-ANS 50 nM) is on record as 20 -fold molar excess. Moreover, the “bis-ANS binding to native GRP94 following extended incubations” value at GRP94 [1] (native GRP94, extended incubation (20 hours)) was “a level of fluorophore binding similar to that seen with heat shocked GRP94 was observed”. The Kd on GRP94 [1] (read-out: half maximal binding of bis-ANS to heat shocked GRP94, fixed bis-ANS 50 nM, increasing heat shocked GRP94, emission 475 nm) is 110 nM. For the same substance, the “trypsin proteolysis pattern of GRP94 (conformation)” value at GRP94 [2] was “substantially reduced recovery of the prominent proteolysis products”. Further, the “GRP94 quaternary structure (oligomerization)” value at GRP94 [3] is reported as “induces changes in the quaternary structure of GRP94 that mimic those seen upon heat shock”. For the same substance, the “GRP94 secondary structure (CD spectra)” value at GRP94 [4] is “does not alter GRP94 secondary structure”. In addition, the “site of bis-ANS binding to GRP94” value on GRP94 [5] is “residues 271–281 of the N-terminal domain of GRP94”. For the same substance, the “citrate synthase thermal aggregation in presence of compound-treated GRP94” value at GRP94 [6] is reported as “no thermal aggregation of citrate synthase was detectable”. The “stimulation of GRP94 peptide binding activity over native protein” value at GRP94 [7] is “four to five-fold”.
